Data as given in US20180273538A1, “PYRROLO[2,3-d]PYRIMIDINE DERIVATIVES, A PROCESS FOR THEIR PREPARATION AND PHARMACEUTICAL COMPOSITIONS CONTAINING THEM” (LES LABORATOIRES SERVIER, priority 2015, published 2018).

What was measured:
DYRK1A = biological target: T1, DYRK1A (Homo sapiens, UniProt Q13627); assay: Kinase TR-FRET assay, DYRK1A; type: biochemical
T1 construct: full-length human kinases from Carna Biosciences; purchased Carna Biosciences 04-130

DYRK1B = biological target: T2, DYRK1B (Homo sapiens, UniProt Q9Y463); assay: Kinase TR-FRET assay, DYRK1B; type: biochemical
T2 construct: full-length human kinases from Carna Biosciences; purchased Carna Biosciences 04-131

[1] = biological target: T3, His-TEV-DYRK1A Kinase domain (aa127-485) (Homo sapiens, UniProt Q13627); assay: Kinase ADP assay (ADP Hunter Plus); type: biochemical
T3 construct: His-TEV-DYRK1A Kinase domain (aa127-485); His (N); TEV cleavage site (N)

phospho-Ser520-DYRK1A = biological target: T4, phospho-Ser520-DYRK1A (Homo sapiens, UniProt Q13627); assay: Cellular DYRK1A autophosphorylation assay in U2-OS cells; type: cell-based; conditions: 5 hours exposure, read-out: IC50 (μM) P-Ser520-Dyrk1A-Cell assay
T4 construct: full-length, wild-type human DYRK1A (NM_001396) with an HA tag; expressed in transfected cells; host or cells: human U2-OS osteosarcoma cells, pcDNA3.1 plasmid

T2 sequence (Q9Y463 whole entry): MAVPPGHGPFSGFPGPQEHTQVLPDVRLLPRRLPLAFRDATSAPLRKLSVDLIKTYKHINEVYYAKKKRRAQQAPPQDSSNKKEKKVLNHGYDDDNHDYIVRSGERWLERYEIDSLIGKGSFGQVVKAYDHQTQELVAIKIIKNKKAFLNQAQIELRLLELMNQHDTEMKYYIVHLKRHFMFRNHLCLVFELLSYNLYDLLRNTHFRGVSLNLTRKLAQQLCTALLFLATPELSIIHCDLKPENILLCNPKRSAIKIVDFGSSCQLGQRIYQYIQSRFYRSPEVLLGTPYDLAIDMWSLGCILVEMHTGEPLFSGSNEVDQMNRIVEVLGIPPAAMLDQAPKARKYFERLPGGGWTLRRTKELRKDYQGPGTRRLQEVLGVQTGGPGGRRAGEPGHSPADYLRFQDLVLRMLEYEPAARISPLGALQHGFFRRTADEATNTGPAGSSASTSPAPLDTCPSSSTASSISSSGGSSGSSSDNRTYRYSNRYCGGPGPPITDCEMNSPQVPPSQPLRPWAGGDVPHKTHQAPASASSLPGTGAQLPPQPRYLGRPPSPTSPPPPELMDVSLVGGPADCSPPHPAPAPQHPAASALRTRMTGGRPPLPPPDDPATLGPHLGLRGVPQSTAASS

Row | SMILES | IC50 (DYRK1A) | IC50 (DYRK1B) | IC50 [1] | IC50 (phospho-Ser520-DYRK1A)
1 | Cc1nc(N[C@@H]2CCc3ccccc32)c2c(-c3ccnc(N)c3)c[nH]c2n1 [Example 76, 5-(2-aminopyridin-4-yl)-N-[(1R)-2,3-dihydro-1H-inden-1-yl]-2-methyl-7H-pyrrolo[2,3-d]pyrimidin-4-amine] | 0.0063 µM | 0.0005 µM | 0.01 µM | 0.0672 µM
2 | Cc1nc(NCc2ccccc2OC(F)(F)F)c2c(-c3ccnc(N)c3)c[nH]c2n1 [Example 89, 5-(2-aminopyridin-4-yl)-2-methyl-N-[2-(trifluoromethoxy)benzyl]-7H-pyrrolo[2,3-d]pyrimidin-4-amine] | 0.0492 µM | – | 0.077 µM | –
3 | Cc1nc(NC(C)c2ccccn2)c2c(-c3ccnc(N)c3)c[nH]c2n1 (stereo not shown) [Example 66, 5-(2-aminopyridin-4-yl)-2-methyl-N-[1-(pyridin-2-yl)ethyl]-7H-pyrrolo[2,3-d]pyrimidin-4-amine] | 0.0107 µM | – | 0.045 µM | –
4 | Cc1nc(NCc2c(C)noc2C)c2c(-c3ccnc(N)c3)c[nH]c2n1 [Example 95, 5-(2-aminopyridin-4-yl)-N-[(3,5-dimethyl-1,2-oxazol-4-yl)methyl]-2-methyl-7H-pyrrolo[2,3-d]pyrimidin-4-amine] | 0.0979 µM | – | 0.066 µM | 0.534 µM
5 | Cc1cc(-c2c[nH]c3nc(C)nc(OCc4ccsc4)c23)ccn1 [Example 5, 2-methyl-5-(2-methylpyridin-4-yl)-4-(thiophen-3-ylmethoxy)-7H-pyrrolo[2,3-d]pyrimidine] | 0.0094 µM | 0.0005 µM | 0.015 µM | –
6 | Cc1nc(N[C@@H]2C[C@H]3CC[C@@H]2C3)c2c(-c3ccnc(N)c3)c[nH]c2n1 [Example 83, 5-(2-aminopyridin-4-yl)-N-[(1R,2R,4S)-bicyclo[2.2.1]hept-2-yl]-2-methyl-7H-pyrrolo[2,3-d]pyrimidin-4-amine] | 0.0006 µM | 0.0404 µM | 0.081 µM | –
7 | Cc1nc(NC(C)c2c(F)cccc2F)c2c(-c3ccnc(N)c3)c[nH]c2n1 (stereo not shown) [Example 82, 5-(2-aminopyridin-4-yl)-N-[1-(2,6-difluorophenyl)ethyl]-2-methyl-7H-pyrrolo[2,3-d]pyrimidin-4-amine] | 0.001 µM | 0.0199 µM | 0.045 µM | –
8 | Cc1nc(NCc2ccccn2)c2c(-c3ccnc(N)c3)c[nH]c2n1 [Example 53, 5-(2-aminopyridin-4-yl)-2-methyl-N-(pyridin-2-ylmethyl)-7H-pyrrolo[2,3-d]pyrimidin-4-amine] | 0.0233 µM | – | 0.021 µM | 0.238 µM
9 | Cc1nc(NCc2ccccc2F)c2c(-c3ccnc(N)c3)c[nH]c2n1 [Example 51, 5-(2-aminopyridin-4-yl)-N-(2-fluorobenzyl)-2-methyl-7H-pyrrolo[2,3-d]pyrimidin-4-amine] | 0.0029 µM | – | 0.013 µM | 0.126 µM
10 | Cc1nc(OCC2CCCC2)c2c(-c3ccncc3)c[nH]c2n1 [Example 15, 4-(cyclopentylmethoxy)-2-methyl-5-(pyridin-4-yl)-7H-pyrrolo[2,3-d]pyrimidine] | 0.0355 µM | 0.0143 µM | 0.032 µM | –
11 | Cc1nc(Nc2ccc3c(c2)OCO3)c2c(-c3ccnc(N)c3)c[nH]c2n1 [Example 132, 5-(2-aminopyridin-4-yl)-N-(1,3-benzodioxol-5-yl)-2-methyl-7H-pyrrolo[2,3-d]pyrimidin-4-amine] | 0.0338 µM | – | 0.122 µM | –
12 | Cc1nc(NCc2cc(F)cc(F)c2F)c2c(-c3ccnc(N)c3)c[nH]c2n1 [Example 73, 5-(2-aminopyridin-4-yl)-2-methyl-N-(2,3,5-trifluorobenzyl)-7H-pyrrolo[2,3-d]pyrimidin-4-amine] | 0.0059 µM | – | 0.038 µM | –
13 | Cc1nc(NCC2CCCCC2)c2c(-c3ccnc(N)c3)c[nH]c2n1 [Example 48, 5-(2-aminopyridin-4-yl)-N-(cyclohexylmethyl)-2-methyl-7H-pyrrolo[2,3-d]pyrimidin-4-amine] | 0.043 µM | – | 0.044 µM | 0.208 µM
14 | Cc1nc(OCc2ccccc2)c2c(-c3ccncc3)c[nH]c2n1 [Example 11, 4-(benzyloxy)-2-methyl-5-(pyridin-4-yl)-7H-pyrrolo[2,3-d]pyrimidine] | 0.0173 µM | 0.0132 µM | 0.012 µM | –
15 | Cc1nc(OCc2ccc(C(C)C)cc2)c2c(-c3ccnc(N)c3)c[nH]c2n1 [Example 27, 4-{2-methyl-4-{(4-{propan-2-yl)benzyl]oxy}-7H-pyrrolo[2,3-d]pyrimidin-5-yl)pyridin-2-amine] | 0.0444 µM | 0.0522 µM | 0.04 µM | –
16 | Cc1nc(NCc2ncccc2C)c2c(-c3ccnc(N)c3)c[nH]c2n1 [Example 60, 5-(2-aminopyridin-4-yl)-2-methyl-N-[(3-methylpyridin-2-yl)methyl]-7H-pyrrolo[2,3-d]pyrimidin-4-amine] | 0.003 µM | – | 0.011 µM | 0.0206 µM
17 | Cc1cc(-c2c[nH]c3nc(C)nc(NCc4ccsc4)c23)ccn1 [Example 45, 2-methyl-5-(2-methylpyridin-4-yl)-N-(thiophen-3-ylmethyl)-7H-pyrrolo[2,3-d]pyrimidin-4-amine] | 0.2 µM | – | 0.496 µM | 0.686 µM

Row | SMILES | IC50 (DYRK1A) | IC50 (DYRK1B) | IC50 [1] | IC50 (phospho-Ser520-DYRK1A)
18 | N#Cc1nc(-c2ccc3c(c2)OCO3)c2c(-c3cc(N)nc(N)c3)c[nH]c2n1 [Example 158, 4-(1,3-benzodioxol-5-yl)-5-(2,6-diaminopyridin-4-yl)-7H-pyrrolo[2,3-d]pyrimidine-2-carbonitrile] | 0.0655 µM | – | 0.15 µM | –
19 | Cc1nc(NCC2CC2)c2c(-c3ccnc(N)c3)c[nH]c2n1 [Example 65, 5-(2-aminopyridin-4-yl)-N-(cyclopropymethyl)-2-methyl-7H-pyrrolo[2,3-d]pyrimidin-4-amine] | 0.0709 µM | – | 0.069 µM | 0.898 µM
20 | COc1cc(F)ccc1CNc1nc(C)nc2[nH]cc(-c3ccnc(N)c3)c12 [Example 84, 5-(2-aminopyridin-4-yl)-N-(4-fluoro-2-methoxybenzyl)-2-methyl-7H-pyrrolo[2,3-d]pyrimidin-4-amine] | – | – | 0.006 µM | 0.0097 µM
21 | Cc1nc(C#CC2CC2)c2c(-c3ccnc(N)c3)c[nH]c2n1 [Example 198, 4-[4-(cyclopropylethynyl)-2-methyl-7H-pyrrolo[2,3-d]pyrimidin-5-yl]pyridin-2-amine] | – | – | 0.017 µM | 0.119 µM
22 | Cc1nc(NCc2ccc(F)cc2F)c2c(-c3ccnc(N)c3)c[nH]c2n1 [Example 63, 5-(2-aminopyridin-4-yl)-N-(2,4-difluorobenzyl)-2-methyl-7H-pyrrolo[2,3-d]pyrimidin-4-amine] | 0.0107 µM | – | 0.014 µM | 0.0408 µM
23 | Cc1nc(-c2ccc3c(c2)OCO3)c2c(-c3cc(N)nc(N)c3)c[nH]c2n1 [Example 192] | – | – | 0.008 µM | 0.048 µM
24 | Nc1cc(-c2c[nH]c3nc(C#CC4CC4)cc(-c4ccc5c(c4)OCCO5)c23)ccn1 [Example 215, 4-[6-(cyclopropylethynyl)-4-(2,3-dihydro-1,4-benzodioxin-6-yl)-1H-pyrrolo[2,3-b]pyridin-3-yl]pyridin-2-amine] | – | – | 0.019 µM | 0.103 µM
25 | Cc1nc(NCc2ccc(F)cc2)c2c(-c3ccnc(N)c3)c[nH]c2n1 [Example 54, 5-(2-aminopyridin-4-yl)-N-(4-fluorobenzyl)-2-methyl-7H-pyrrolo[2,3-d]pyrimidin-4-amine] | 0.0129 µM | – | 0.032 µM | 0.511 µM
26 | Cc1nc(NCc2ccc3cc[nH]c3c2)c2c(-c3ccnc(N)c3)c[nH]c2n1 [Example 72, 5-(2-aminopyridin-4-yl)-N-(1H-indol-6-ylmethyl)-2-methyl-7H-pyrrolo[2,3-d]pyrimidin-4-amine] | 0.021 µM | – | 0.013 µM | –
27 | Cc1nc(-c2ccc3c(c2)OCO3)c2c(-c3ccnc(N)n3)c[nH]c2n1 [Example 209, 4-[4-(1,3-benzodioxol-5-yl)-2-methyl-7H-pyrrolo[2,3-d]pyrimidin-5-yl]pyrimidin-2-amine] | – | – | 0.032 µM | 0.157 µM
28 | Cc1nc(NCc2cccc3c2OCO3)c2c(-c3ccnc(N)c3)c[nH]c2n1 [Example 127, 5-(2-aminopyridin-4-yl)-N-(1,3-benzodioxol-4-ylmethyl)-2-methyl-7H-pyrrolo[2,3-d]pyrimidin-4-amine] | – | – | 0.011 µM | 0.0169 µM
29 | Nc1cc(-c2c[nH]c3nc(C#CC4CC4)cc(-c4ccc5c(c4)OCO5)c23)ccn1 [Example 219, 4-[4-(1,3-benzodioxol-5-yl)-6-(cyclopropylethynyl)-1H-pyrrolo[2,3-b]pyridin-3-yl]pyridin-2-amine] | – | – | 0.019 µM | 0.0325 µM
30 | Cc1nc(-c2ccc3c(c2)CCCC3)c2c(-c3ccnc(N)c3)c[nH]c2n1 [Example 195] | – | – | 0.008 µM | 0.0071 µM
31 | Cc1cc(-c2ccc3c(c2)OCO3)c2c(-c3ccnc(N)c3)c[nH]c2n1 [Example 222, 4-[4-(1,3-benzodioxol-5-yl)-6-methyl-1H-pyrrolo[2,3-b]pyridin-3-yl]pyridin-2-amine] | – | – | 0.008 µM | 0.0442 µM
32 | Cc1nc(OC(C)c2ccccc2)c2c(-c3ccnc(N)c3)c[nH]c2n1 (stereo not shown) [Example 20, 4-[2-methyl-4-(1-phenylethoxy)-7H-pyrrolo[2,3-d]pyrimidin-5-yl]pyridin-2-amine] | 0.0197 µM | – | 0.013 µM | –
33 | Cc1nc(/C=C/c2ccccc2)c2c(-c3ccnc(N)c3)c[nH]c2n1 [Example 159] | – | – | 0.012 µM | 0.0187 µM
34 | Cc1nc(NCc2ccc(F)cc2C(F)(F)F)c2c(-c3ccnc(N)c3)c[nH]c2n1 [Example 75, 5-(2-ammopyridin-4-yl)-N-[4-fluoro-2-(trifluoromethyl)benzyl]-2-methyl-7H-pyrrolo[2,3-d]pyrimidin-4-amine] | 0.0143 µM | – | 0.037 µM | –
